What was measured:
Type in all cases: in vivo
[1] = tested on: hair growth at depilated back portions of mice (C57BL/6); assay: Hair growth after subcutaneous injection in depilated mice; details: 3% solution, subcutaneous injection 50 μL every 3-4 days, seven times
Protocol: According to one embodiment, sodium valproate (VPA) is administered to subjects via subcutaneous injection and then tested for its effect for promoting hair growth. Seven week aged female mice (C57BL/6) are subjected to depilation at their back portions. Next, 3% sodium valproate solution is administered via subcutaneous injection to the left side of each depilated back portion in a unit dose of 50 μL at an interval of 3-4 days seven times in total. Then, the degree of hair growth is observed 1, 16 and 30 days after starting the test. In the test of FIG. 1, sodium valproate is injected subcutaneously to the left portion (marked by a circle) of the back of each mouse.

[2] = tested on: hair growth at depilated back portions of mice (C57BL/6); assay: Hair growth and hair weight after oral administration in depilated mice; details: for hair growth as compared to the control (FIG. 2): 0.2 g/kg everyday for 5 weeks
Protocol: According to one embodiment, sodium valproate is administered orally to subjects and then tested for its effect for promoting hair growth. Seven week aged female mice (C57BL/6) are subjected to depilation at their back portions. Next, valproic acid is administered orally to mice of each test group everyday for 5 weeks. The control (mixed solution of distilled water, 1% methyl cellulose and 0.5% Tween 80™) and sodium valproate each are administered in a unit dose of 0.2 g/kg. After the administration, hair growth is observed at an interval of one week. After 5 weeks, hair weight after the depilation is measured.

[3] = tested on: hair growth at depilated back portions of mice (C57BL/6); assay: Hair growth and hair weight after skin application in depilated mice
Protocol: According to one embodiment, sodium valproate is administered to subjects via external application to the skin and then tested for its effect for promoting hair growth. Seven week aged female mice (C57BL/6) are subjected to depilation at their back portions. Next, 7.2% sodium valproate is applied to the depilated back portions of mice of each test group twice per day. As a control, a mixed solution of propylene glycol/ethanol/water (5:3:2) is used. After the skin application, hair growth is observed at an interval of one week. After 6 weeks, hair weight after the depilation is measured.

CCCC(CCC)C(=O)[O-].[Na+] [sodium valproate]
degree of hair growth as compared to the control (FIG. 1) ([1]; after 16 days, control = right side of back): hair growth is promoted
formation of new hair follicles (FIG. 1) ([1]; after 30 days): new hair follicles are formed
hair growth as compared to the control (FIG. 2) [2]: delays hair growth
hair weight (FIG. 3) ([2]; 0.2 g/kg everyday, after 5 weeks, control about 85 mg): 65 mg
hair growth as compared to the control (FIG. 4) ([3]; 7.2% skin application twice per day): promotes hair growth
hair weight (FIG. 5) ([3]; 7.2% skin application twice per day, after 6 weeks, control about 35 mg): ≥ 80 mg

CCCC(CCC)C(=O)O [valproic acid, 2-propylpentanoic acid]
hair growth as compared to the control (FIG. 2) [2]: inhibits hair growth
hair growth, summary statement ([3]; transdermal administration (subcutaneous injection or skin application)): promotes hair growth
